How the values were obtained:
[1] = in vivo; cited from earlier work
[2] = in vivo; cited from earlier work; remark: listed apart in the source
L-NAME treated SHR rats = test: Rat model for pharmacological activity using blood pressure as a marker; type: in vivo; settings: AEN tosylate 0.5 mg/kg/h infused, valsartan 5 mg/kg single daily dose; for effect on blood pressure: after 1 and 2 weeks
Procedure: FIG. 5: Pharmacological activity of AEN tosylate, valsartan and AEN tosylate/valsartan combination on blood pressure in L-NAME treated SHR rats.
Column 1: AEN tosylate (0.5 mg/kg/h), column 2: valsartan (single dose 5 mg/kg), column 3: AEN tosylate (0.5 mg/kg/h) plus valsartan (single daily dose 5 mg/kg).
Hatched bars: blood pressure lowering versus control after 1 week, black solid bars after 2 weeks. Vertical axis: reduction in blood pressure in mm Hg
SHR rats were treated with L-NAME to increase blood pressure. Following treatment with L-NAME rats were treated continuously for two weeks with either AEN tosylate (1) with a continuously infused dose (using an osmotic pump) of 0.5 mg/kg/h (column 1 in FIG. 5), valsartan at 5 mg/kg, single daily dose (column 2 in FIG. 5) or AEN tosylate plus valsartan (combined doses, group 3 in FIG. 5). Effects on blood pressure were measured after 1 week and after 2 weeks of treatment.

SMILES | development of nitrate tolerance [1] | half-live [2] | effect on blood pressure (L-NAME treated SHR rats) | NO-tolerance induction (L-NAME treated SHR rats; two weeks continuous treatment)
NCCO[N+](=O)[O-] [AEN, 2-aminoethyl nitrate] | no development of nitrate tolerance | approx. 2 hours |  | 
Cc1ccc(S(=O)(=O)O)cc1.NCCO[N+](=O)[O-] [AEN tosylate, 2-aminoethylnitrate (aen) tosylate] |  |  | continued pharmacological activity | without showing signs of NO-tolerance induction
CCCCC(=O)N(Cc1ccc(-c2ccccc2-c2nnn[nH]2)cc1)[C@H](C(=O)O)C(C)C [valsartan] |  |  | lowered blood pressure | 

Reference: patent publication US20150216992A1, “EXTENDED RELEASE COMPOSITIONS OF AN AMINOALKYL NITRATE” (CARDIOLYNX AG, priority 2012, published 2015)
